{"source": "patent US9662063B2", "about": "“Pain sensory nerve stimulation apparatus” (INTER-UNIVERSITY RESEARCH INSTITUTE CORPORATION NATIONAL …, priority 2011, dated 2017)", "test_system": "C fibers", "experiment": "Current threshold for C fiber stimulation (anode stimulation) after application of capsaicin in vaseline to subjects", "assay_type": "in vivo", "conditions": "for current threshold: anode stimulation of C fibers", "description": "Even when any one of the above-described configurations of the stimulation electrode 30 is used, at least one of an exogenous algesic substance 60 and a pyrogen 60 is interposed between the stimulation electrode 30 and the contact portion of the living body A, by means of, for example, application (FIG. 1). Examples of the exogenous algesic substance 60 are capsaicin, sanshool, zingerone, camphor, allyl isothiocyanate, and menthol. The exogenous algesic substance is a concept which contains an algesic substance, a phlogogenic substance, and an irritating substance. In the case where the exogenous algesic substance 60 is interposed by means of application, it is preferably applied about 20 minutes before stimulation of the living body. Preferably, the pyrogen 60 warms the stimulation portion of the living body A to about 30° C. by, for example, using heat generation due to an oxidation reaction of a metal. The operating section 24 includes a polarity conversion setting unit. The polarity conversion setting unit can give instructions for causing the polarity switching section 25 which is the electrical polarity converting unit, to convert the electrical polarity. According to the configuration, the electrical polarity of the needle electrode 31 can be set as the anode, and that of the contact electrode 32 can be set as the cathode, or, by contrast, the electrical polarity of the needle electrode 31 can be set as the cathode, and that of the contact electrode 32 can be set as the anode. […] In the case where the polarity switching section 25 sets the electrical polarity of the needle electrode 31 as the cathode, moreover, Aδ fibers can be selectively stimulated. Table 1 indicates results of measurements in which an appropriate amount (a weight ratio of about 0.05 to 0.1 with respect to vaseline) of capsaicin was applied as the exogenous algesic substance to four subjects. Table 1 indicates relationships between the current threshold in the case where the anode stimulation was performed on each subject and C fibers of each subject was stimulated, and the time period elapsed after the application. […] Since an effect due to stimulation was obtained even at a low stimulation intensity (mA), this minimizes the burden on a subject, and realizes the check of the nerve function. It was also confirmed that an effective examination can be conducted without being affected by the skill of the measuring person."}
{"smiles": "COc1cc(CNC(=O)CCCC/C=C/C(C)C)ccc1O", "note": "[capsaicin]", "values": [{"measurement": "current threshold", "setting": "Subject 1, 5 minutes after application, capsaicin weight ratio about 0.05 to 0.1 with respect to vaseline", "value": "0.10 (mA)"}, {"measurement": "current threshold", "setting": "Subject 1, 10 minutes after application", "value": "0.10 (mA)"}, {"measurement": "current threshold", "setting": "Subject 1, 15 minutes after application", "value": "0.09 (mA)"}, {"measurement": "current threshold", "setting": "Subject 1, 20 minutes after application", "value": "0.09 (mA)"}, {"measurement": "current threshold", "setting": "Subject 2, 5 minutes after application", "value": "0.32 (mA)"}, {"measurement": "current threshold", "setting": "Subject 2, 10 minutes after application", "value": "0.18 (mA)"}, {"measurement": "current threshold", "setting": "Subject 2, 15 minutes after application", "value": "0.13 (mA)"}, {"measurement": "current threshold", "setting": "Subject 2, 20 minutes after application", "value": "0.15 (mA)"}, {"measurement": "current threshold reduced to fraction of the normal value", "setting": "Subject 2, during 20 minutes after the application", "value": "about one half"}, {"measurement": "current threshold", "setting": "Subject 3, 5 minutes after application", "value": "0.14 (mA)"}, {"measurement": "current threshold", "setting": "Subject 3, 10 minutes after application", "value": "0.13 (mA)"}, {"measurement": "current threshold", "setting": "Subject 3, 20 minutes after application", "value": "0.09 (mA)"}, {"measurement": "current threshold reduced to fraction of the normal value", "setting": "Subject 3, during 20 minutes after the application", "value": "about two thirds"}, {"measurement": "current threshold", "setting": "Subject 4, 5 minutes after application", "value": "0.05 (mA)"}, {"measurement": "current threshold", "setting": "Subject 4, 10 minutes after application", "value": "0.04 (mA)"}, {"measurement": "current threshold", "setting": "Subject 4, 15 minutes after application", "value": "0.04 (mA)"}, {"measurement": "current threshold", "setting": "Subject 4, 20 minutes after application", "value": "0.04 (mA)"}, {"measurement": "trend of the current threshold", "setting": "four subjects, during 20 minutes after the application", "value": "downward trend"}]}
